According to PubChem BioAssay (NCI):
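1) Cells in 96-well plates. 2) Compound, 48 h, 5 concentrations. 3) Linear interpolation between surrounding doses. 4) Unreached endpoint = highest concentration. TGI marks complete inhibition of growth.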

Key:
Experiment in all cases: NCI tumour cell line growth inhibition, 48 h
786-0 renal = test system: 786-0 renal
A498 renal = test system: A498 renal
ACHN renal = test system: ACHN renal
BT-549 breast = test system: BT-549 breast
CAKI-1 renal = test system: CAKI-1 renal
COLO 205 colon = test system: COLO 205 colon
DU-145 prostate = test system: DU-145 prostate
EKVX NSCLC = test system: EKVX NSCLC
HCC-2998 colon = test system: HCC-2998 colon
HCT-116 colon = test system: HCT-116 colon
HCT-15 colon = test system: HCT-15 colon
HL-60(TB) leukemia = test system: HL-60(TB) leukemia
HOP-62 NSCLC = test system: HOP-62 NSCLC
HS 578T breast = test system: HS 578T breast
HT29 colon = test system: HT29 colon
IGROV1 ovarian = test system: IGROV1 ovarian
K-562 leukemia = test system: K-562 leukemia
KM12 colon = test system: KM12 colon
LOX IMVI melanoma = test system: LOX IMVI melanoma
MALME-3M melanoma = test system: MALME-3M melanoma
MCF7 breast = test system: MCF7 breast
MDA-MB-231 breast = test system: MDA-MB-231 breast
MDA-MB-435 = test system: MDA-MB-435
MDA-N = test system: MDA-N
MOLT-4 leukemia = test system: MOLT-4 leukemia
NCI-H226 lung = test system: NCI-H226 lung
NCI-H23 lung = test system: NCI-H23 lung
NCI-H460 lung = test system: NCI-H460 lung
NCI-H522 lung = test system: NCI-H522 lung
NCI/ADR-RES ovarian = test system: NCI/ADR-RES ovarian
OVCAR-3 ovarian = test system: OVCAR-3 ovarian
OVCAR-4 ovarian = test system: OVCAR-4 ovarian
OVCAR-5 ovarian = test system: OVCAR-5 ovarian
OVCAR-8 ovarian = test system: OVCAR-8 ovarian
PC-3 prostate = test system: PC-3 prostate
RPMI-8226 leukemia = test system: RPMI-8226 leukemia
RXF 393 renal = test system: RXF 393 renal
SF-268 CNS = test system: SF-268 CNS
SF-295 CNS = test system: SF-295 CNS
SK-MEL-2 melanoma = test system: SK-MEL-2 melanoma
SK-MEL-28 melanoma = test system: SK-MEL-28 melanoma
SK-MEL-5 melanoma = test system: SK-MEL-5 melanoma
SN12C renal = test system: SN12C renal
SNB-19 CNS = test system: SNB-19 CNS
SNB-75 CNS = test system: SNB-75 CNS
SR leukemia = test system: SR leukemia
SW-620 colon = test system: SW-620 colon
T-47D breast = test system: T-47D breast
TK-10 renal = test system: TK-10 renal
U251 CNS = test system: U251 CNS
UACC-257 melanoma = test system: UACC-257 melanoma
UACC-62 melanoma = test system: UACC-62 melanoma
UO-31 renal = test system: UO-31 renal
A549 NSCLC = test system: A549 NSCLC
CCRF-CEM leukemia = test system: CCRF-CEM leukemia
HOP-92 NSCLC = test system: HOP-92 NSCLC
M14 melanoma = test system: M14 melanoma
SF-539 CNS = test system: SF-539 CNS
SK-OV-3 ovarian = test system: SK-OV-3 ovarian

CNC(=S)Nc1sc2c(c1C#N)CCCC2
TGI (786-0 renal): > 75 µM
TGI (A498 renal): > 75 µM
TGI (ACHN renal): > 75 µM
TGI (BT-549 breast): > 75 µM
TGI (CAKI-1 renal): > 75 µM
TGI (COLO 205 colon): > 75 µM
TGI (DU-145 prostate): > 75 µM
TGI (EKVX NSCLC): > 75 µM
TGI (HCC-2998 colon): > 75 µM
TGI (HCT-116 colon): > 75 µM
TGI (HCT-15 colon): > 75 µM
TGI (HL-60(TB) leukemia): > 75 µM
TGI (HOP-62 NSCLC): > 75 µM
TGI (HS 578T breast): > 75 µM
TGI (HT29 colon): > 75 µM
TGI (IGROV1 ovarian): > 75 µM
TGI (K-562 leukemia): > 75 µM
TGI (KM12 colon): > 75 µM
TGI (LOX IMVI melanoma): > 75 µM
TGI (MALME-3M melanoma): > 75 µM
TGI (MCF7 breast): > 75 µM
TGI (MDA-MB-231 breast): > 75 µM
TGI (MDA-MB-435): > 75 µM
TGI (MDA-N): > 75 µM
TGI (MOLT-4 leukemia): > 75 µM
TGI (NCI-H226 lung): > 75 µM
TGI (NCI-H23 lung): > 75 µM
TGI (NCI-H460 lung): > 75 µM
TGI (NCI-H522 lung): > 75 µM
TGI (NCI/ADR-RES ovarian): > 75 µM
TGI (OVCAR-3 ovarian): > 75 µM
TGI (OVCAR-4 ovarian): > 75 µM
TGI (OVCAR-5 ovarian): > 75 µM
TGI (OVCAR-8 ovarian): > 75 µM
TGI (PC-3 prostate): > 75 µM
TGI (RPMI-8226 leukemia): > 75 µM
TGI (RXF 393 renal): > 75 µM
TGI (SF-268 CNS): > 75 µM
TGI (SF-295 CNS): > 75 µM
TGI (SK-MEL-2 melanoma): > 75 µM
TGI (SK-MEL-28 melanoma): > 75 µM
TGI (SK-MEL-5 melanoma): > 75 µM
TGI (SN12C renal): > 75 µM
TGI (SNB-19 CNS): > 75 µM
TGI (SNB-75 CNS): > 75 µM
TGI (SR leukemia): > 75 µM
TGI (SW-620 colon): > 75 µM
TGI (T-47D breast): > 75 µM
TGI (TK-10 renal): > 75 µM
TGI (U251 CNS): > 75 µM
TGI (UACC-257 melanoma): > 75 µM
TGI (UACC-62 melanoma): > 75 µM
TGI (UO-31 renal): > 75 µM

COc1cc2c(cc1O)NC(=S)[C@@H]1CCCN1C2=O
TGI (786-0 renal): > 100 µM
TGI (A498 renal): > 100 µM
TGI (A549 NSCLC): > 100 µM
TGI (ACHN renal): > 100 µM
TGI (BT-549 breast): > 100 µM
TGI (CAKI-1 renal): > 100 µM
TGI (CCRF-CEM leukemia): > 100 µM
TGI (COLO 205 colon): > 100 µM
TGI (DU-145 prostate): > 100 µM
TGI (EKVX NSCLC): > 100 µM
TGI (HCC-2998 colon): > 100 µM
TGI (HCT-116 colon): > 100 µM
TGI (HCT-15 colon): > 100 µM
TGI (HOP-62 NSCLC): > 100 µM
TGI (HOP-92 NSCLC): > 100 µM
TGI (HS 578T breast): > 100 µM
TGI (HT29 colon): > 100 µM
TGI (IGROV1 ovarian): > 100 µM
TGI (K-562 leukemia): > 100 µM
TGI (KM12 colon): > 100 µM
TGI (LOX IMVI melanoma): > 100 µM
TGI (M14 melanoma): > 100 µM
TGI (MALME-3M melanoma): > 100 µM
TGI (MCF7 breast): > 100 µM
TGI (MDA-MB-231 breast): > 100 µM
TGI (MDA-MB-435): > 100 µM
TGI (MDA-N): > 100 µM
TGI (MOLT-4 leukemia): > 100 µM
TGI (NCI-H226 lung): > 100 µM
TGI (NCI-H23 lung): > 100 µM
TGI (NCI-H460 lung): > 100 µM
TGI (NCI-H522 lung): > 100 µM
TGI (NCI/ADR-RES ovarian): > 100 µM
TGI (OVCAR-3 ovarian): > 100 µM
TGI (OVCAR-4 ovarian): > 100 µM
TGI (OVCAR-5 ovarian): > 100 µM
TGI (OVCAR-8 ovarian): > 100 µM
TGI (PC-3 prostate): > 100 µM
TGI (RPMI-8226 leukemia): > 100 µM
TGI (RXF 393 renal): > 100 µM
TGI (SF-268 CNS): > 100 µM
TGI (SF-295 CNS): > 100 µM
TGI (SF-539 CNS): > 100 µM
TGI (SK-MEL-2 melanoma): > 100 µM
TGI (SK-MEL-28 melanoma): > 100 µM
TGI (SK-MEL-5 melanoma): > 100 µM
TGI (SK-OV-3 ovarian): > 100 µM
TGI (SN12C renal): > 100 µM
TGI (SNB-19 CNS): > 100 µM
TGI (SNB-75 CNS): > 100 µM
TGI (SR leukemia): > 100 µM
TGI (SW-620 colon): > 100 µM
TGI (T-47D breast): > 100 µM
TGI (TK-10 renal): > 100 µM
TGI (U251 CNS): > 100 µM
TGI (UACC-257 melanoma): > 100 µM
TGI (UACC-62 melanoma): > 100 µM
TGI (UO-31 renal): > 100 µM

Cn1ncc2[nH]cnc2c1=S
TGI (786-0 renal): > 100 µM
TGI (A498 renal): > 100 µM
TGI (A549 NSCLC): > 100 µM
TGI (ACHN renal): > 100 µM
TGI (BT-549 breast): > 100 µM
TGI (CAKI-1 renal): > 100 µM
TGI (CCRF-CEM leukemia): 66.8 µM
TGI (COLO 205 colon): > 100 µM
TGI (DU-145 prostate): > 100 µM
TGI (EKVX NSCLC): > 100 µM
TGI (HCT-116 colon): > 100 µM
TGI (HCT-15 colon): > 100 µM
TGI (HL-60(TB) leukemia): 24.6 µM
TGI (HOP-62 NSCLC): > 100 µM
TGI (HS 578T breast): > 100 µM
TGI (HT29 colon): > 100 µM
TGI (IGROV1 ovarian): > 100 µM
TGI (K-562 leukemia): > 100 µM
TGI (KM12 colon): > 100 µM
TGI (M14 melanoma): > 100 µM
TGI (MCF7 breast): > 100 µM
TGI (MDA-MB-231 breast): > 100 µM
TGI (MDA-MB-435): > 100 µM
TGI (MDA-N): > 100 µM
TGI (MOLT-4 leukemia): > 100 µM
TGI (NCI-H226 lung): > 100 µM
TGI (NCI-H23 lung): > 100 µM
TGI (NCI-H460 lung): > 100 µM
TGI (NCI/ADR-RES ovarian): > 100 µM
TGI (OVCAR-3 ovarian): > 100 µM
TGI (OVCAR-5 ovarian): > 100 µM
TGI (OVCAR-8 ovarian): > 100 µM
TGI (PC-3 prostate): > 100 µM
TGI (RPMI-8226 leukemia): > 100 µM
TGI (RXF 393 renal): > 100 µM
TGI (SF-268 CNS): > 100 µM
TGI (SF-295 CNS): > 100 µM
TGI (SF-539 CNS): > 100 µM
TGI (SK-MEL-2 melanoma): > 100 µM
TGI (SK-MEL-28 melanoma): > 100 µM
TGI (SK-MEL-5 melanoma): > 100 µM
TGI (SN12C renal): > 100 µM
TGI (SNB-19 CNS): > 100 µM
TGI (SNB-75 CNS): > 100 µM
TGI (SR leukemia): > 100 µM
TGI (SW-620 colon): > 100 µM
TGI (T-47D breast): > 100 µM
TGI (TK-10 renal): > 100 µM
TGI (U251 CNS): > 100 µM
TGI (UACC-257 melanoma): > 100 µM
TGI (UACC-62 melanoma): > 100 µM
TGI (UO-31 renal): > 100 µM
